The values below come from patent US9321808B2, “Homo- and heterodimeric SMAC mimetic compounds as apoptosis inducers” (BioNTech AG, priority 2012, dated 2016).

The target of one experiment is T1, cIAP2-BIR3 (Homo sapiens, UniProt Q13489).
T1 construct: 6xHis (C); made in house; host or cells: Escherichia coli BL21(DE3)
Nature of the experiment: Fluorescence polarization binding, cIAP2 BIR3. The protocol:
The plasmids were used to transform Escherichia coli strain BL21(DE3). The recombinant proteins were purified using Ni-NTA (His-trap FFcrude, Ge-Healthcare), followed by gel filtration (Superdex 200, Ge-Healthcare). The recombinant proteins were eluted in 20 mM Tris pH 8.0, 250 mM NaCl and 10 mM DTT. Aliquoted proteins were conserved at −80° C.
The fluorescently-labelled Smac peptide (AbuRPF-K(5-Fam)-N1-12, final concentration of 2 nM), and increasing concentrations of cIAP1- and cIAP2-BIR3 from 0 to 20 μM, were added to an assay buffer consisting of 100 mM potassium phosphate, pH 7.5, 100 μg/ml bovine γ-globulin, 0.02% sodium azide. […] All experiments were performed in black, flat-bottom 96-well microplates (Greiner bio-one). 4-substituted azabicyclo[5.3.0]alkane Smac-mimetics were evaluated for their ability to displace the fluorescent probe from recombinant protein. […] After 15 minutes mixing on a shaker, and 3 hours incubation at room temperature, fluorescent polarization was measured on the Ultra plate reader (Tecan).
On the technique in general: In fluorescence polarisation assays a small probe gives low polarisation when free and higher when bound to something large.

Experiment [1] relates to MDA-MB-231 (breast epithelial adenocarcinoma). Nature of the experiment: Standalone cytotoxicity, MTT assay, MDA-MB-231. The format is cell-based, human. The following applies: Homo sapiens, MDA-MB-231, 96 hours treatment, reported as activity range, read-out: MDA-MB-231 IC50 (μM ± standard Deviation). How it is done:
(§1) Human cell lines MDA-MB-231 (breast epithelial adenocarcinoma), HL-60 (promieloblast cells) and PC-3 (prostate adenocarcinoma cells) were purchased from Istituto Zooprofilattico di Brescia (www.bs.izs.it). Reagents for cell culture were purchased from Sigma, unless otherwise indicated. Cells were grown on Plastic Petri dishes (Falcon) in RPMI 1640 medium supplemented with 2 mM L-glutamine, Penicillin (100 U/mL)/Streptomicin (100 μg/mL), 10% Fetal Bovine Serum. A sub-cultivation ratio of 1:4 was used. Cells were maintained at 37° C. in an atmosphere of 95% air and 5% CO2.
(§2) Cells were seeded in 96-well flat bottom cell culture plates at a density of 5000 cells/well in 100 μL of culture medium. HL-60 cells were immediately stimulated with the indicated compounds for 96 hours in the incubator. MDA-MB-231 and PC-3 cells were allowed to adhere for 24 hours. prior to be exposed to the compounds for 96 hours in the incubator. Cells were exposed to the following concentrations of the compounds: 50 nM, 100 nM, 200 nM, 500 nM, 1 μM, 5 μM, 10 μM, 50 μM and 100 μM. Each point was done in triplicate. The cellular growth inhibitory effect of our compounds was evaluated using the MTT assay (Sigma). After 96 hours of treatment, 10 μL of MTT reagent solution (5 mg of MTT powder/mL diluted in Phosphate Buffer Salt saline solution) were added in each well and allowed to react for 3 hours in the incubator. After 3 hours cells were solubilized in Lysis Buffer (10% SDS/0.1% HCl in water, 100 μL for each well) for 24 hours at 37° C. Finally, the absorbance was measured at 570 nm using a multiplate reader. Absorbance values were collected and IC50 values were determined using GraphPad Prism5 software. The experiments were repeated twice.
After 96 hours of treatment, 10 μl of MTT reagent solution (5 mg of MTT powder/ml diluted in Phosphate Buffer Salt saline solution) were added in each well and allowed to react for 3 hours in the incubator. After 3 hours cells were solubilized in Lysis Buffer (10% SDS/0.1% HCl in water, 100 μl for each well) for 24 hours at 37° C. Finally, the absorbance was measured at 570 nm using a multiplate reader. Absorbance values were collected and IC50/IC80 values were determined using GraphPad Prism5 software.
(Tetrazolium dyes change colour on reduction, which living cells bring about.)

The subject of experiment [2] is HL-60 (promieloblast cells). Nature of the experiment: Standalone cytotoxicity, MTT assay, HL-60. It is filed as cell-based, human. The conditions noted are these: Homo sapiens, HL-60, 96 hours treatment, reported as activity range, read-out: HL-60 IC50 (μM ± standard Deviation). How it is done:
as §1
as §2, with “The experiments were repeated twice.” left out
(§3) After 96 hours of treatment, 10 μl of MTT reagent solution (5 mg of MTT powder/ml diluted in Phosphate Buffer Salt saline solution) were added in each well and allowed to react for 3 hours in the incubator. […] Finally, the absorbance was measured at 570 nm using a multiplate reader. Absorbance values were collected and IC50/IC80 values were determined using GraphPad Prism5 software.

Experiment [3] concerns PC-3 (prostate adenocarcinoma cells). Nature of the experiment: Standalone cytotoxicity, MTT assay, PC-3. The format is cell-based, human. The conditions noted are these: Homo sapiens, 96 hours treatment, reported as activity range, read-out: PC-3 IC50 (μM ± standard Deviation). The protocol: as §1
as §2, with “The experiments were repeated twice.” left out
as §3

For experiment [4], the system named is IGROV-1 human ovarian carcinoma xenografted s.c. The following applies: i.p., 5 mg/Kg, qdx5/wx3; IGROV-1 s.c. How it is done:
All experiments of antitumor activity were carried out using female athymic Swiss nude mice, 8-10 weeks-old (Charles River, Calco, Italy). Mice were maintained in laminar flow rooms keeping temperature and humidity constant. Mice had free access to food and water. Experiments were approved by the Ethics Committee for Animal Experimentation of the Istituto Nazionale Tumori of Milan according to institutional guidelines.
Chem. Soc. […] The drugs were delivered i.p. in a volume of 10 ml/Kg of body weight.
For subcutaneous (s.c.) growth, exponentially growing tumor cells (5×10^6 cells/mouse) were s.c. injected into the right flank of athymic nude mice. The tumor line was achieved by serial s.c. passages of fragments (about 2×2×6 mm) from regrowing tumors into healthy mice. Groups of five mice bearing bilateral s.c. tumors were employed. Tumor fragments were implanted on day 0 and tumor growth was followed by biweekly measurements of tumor diameters with a Vernier caliper. […] Treatment started three days after tumor implant, when tumors were just palpable. […] The toxicity of the drug treatment was determined as body weight loss and lethal toxicity. Deaths occurring in treated mice before the death of the first control mouse were ascribed to toxic effects. Student t test (two tailed) exact test was used for statistical comparison of tumor volumes in mice.

Where [5] appears, read: displacement of fluorescent probe (2 nM) from cIAP2 (25 nM), average of three independent measurements, read-out: cIAP2 IC50(av).

Where two headings read alike, the source gives them in different places.

Usually IC50 stands for the midpoint of a concentration-inhibition curve.

T1 sequence (Q13489 237-349): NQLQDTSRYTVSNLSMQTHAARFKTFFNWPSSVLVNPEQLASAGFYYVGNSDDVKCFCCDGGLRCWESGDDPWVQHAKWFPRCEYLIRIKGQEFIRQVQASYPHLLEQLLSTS

`CC[C@H](NC)C(=O)N[C@@H]1C(=O)N2[C@@H](CC[C@@H]1CNC(=O)COCC(=O)NCCOCCOCCOCCNC(=O)[C@@H](NC(=O)[C@@H]1CC[C@@H]3CC[C@H](CO)[C@H](NC(=O)[C@H](CC)NC)C(=O)N31)c1ccccc1)CC[C@H]2C(=O)NC(c1ccccc1)c1ccccc1` [Compound 36a]: the 50% inhibitory concentration (IC50) at cIAP2-BIR3 (setting [5]) was 0.0002 µM; in experiment [1] it was 1 to 10 µM.
For the compound `CC[C@H](NC)C(=O)N[C@@H]1C(=O)N2[C@@H](CC[C@@H]1CO)CC[C@H]2C(=O)N[C@H](C(=O)NCCNC(=O)CCC#CC#CCCC(=O)NCCNC(=O)[C@@H](NC(=O)[C@@H]1CC[C@@H]2CC[C@H](CO)[C@H](NC(=O)[C@H](CC)NC)C(=O)N21)c1ccccc1)c1ccccc1` [Compound 30c], the IC50 in experiment [1] was in the range of 10 to 50 µM.
Take `CC[C@H](NC)C(=O)N[C@@H]1C(=O)N2[C@@H](CC[C@@H]1CO)CC[C@H]2C(=O)N[C@H](C(=O)NCCCOCCOCCOCCCNC(=O)[C@@H](NC(=O)[C@@H]1CC[C@@H]2CC[C@H](CO)[C@H](NC(=O)[C@H](CC)NC)C(=O)N21)c1ccccc1)c1ccccc1` [Compound 30d]: the IC50 was 10 to 50 µM in experiment [2], 0.0022 µM on cIAP2-BIR3 (setting [5]), greater than 50 µM in experiment [3] and 10 to 50 µM in experiment [1].
As for `CN[C@@H](C)C(=O)N[C@H]1CCCC[C@H]2CC[C@@H](C(=O)N[C@@H](c3ccccc3)c3cn(CCCCc4ccc(CCCCn5cc([C@@H](NC(=O)[C@@H]6CC[C@@H]7CCCC[C@H](NC(=O)[C@H](C)NC)C(=O)N76)c6ccccc6)nn5)cc4)nn3)N2C1=O` [SM-164, reference compound], in experiment [4], the Antitumor effect result is given as “did not display any antitumor effect”.
With `CC[C@H](NC)C(=O)N[C@@H]1C(=O)N2[C@@H](CC[C@@H]1CO)CC[C@H]2C(=O)N[C@H](C(=O)NCCCCCCCCNC(=O)[C@@H](NC(=O)[C@@H]1CC[C@@H]2CC[C@H](CO)[C@H](NC(=O)[C@H](CC)NC)C(=O)N21)c1ccccc1)c1ccccc1` [Compound 30a], the IC50 on cIAP2-BIR3 is 0.0018 µM; in experiment [1], less than 1 µM.
As for `CC[C@H](NC)C(=O)N[C@@H]1C(=O)N2[C@@H](CC[C@@H]1CNCc1ccccc1)CC[C@H]2C(=O)N[C@@H](c1ccccc1)c1cn(CCCCc2ccc(CCCCn3cc([C@@H](NC(=O)[C@@H]4CC[C@@H]5CC[C@H](CNCc6ccccc6)[C@H](NC(=O)[C@H](CC)NC)C(=O)N54)c4ccccc4)nn3)cc2)nn1` [Compound 29a], the IC50 on cIAP2-BIR3 was 0.0121 µM; in experiment [1], less than 1 µM.
As for `CC[C@H](NC)C(=O)N[C@@H]1C(=O)N2[C@@H](CC[C@@H]1Cn1cc(CCC(=O)NCCOCCOCCOCCNC(=O)[C@@H](NC(=O)[C@@H]3CC[C@@H]4CC[C@H](CO)[C@H](NC(=O)[C@H](CC)NC)C(=O)N43)c3ccccc3)nn1)CC[C@H]2C(=O)NC(c1ccccc1)c1ccccc1` [Compound 35a], the IC50 on cIAP2-BIR3 was 0.0004 µM; in experiment [1] it was 1 to 10 µM.
